Where two headings read alike, the source gives them in different places.
Assays:
LSD1 [1] = target: T1, LSD1 (Homo sapiens, UniProt O60341); design: method as in PMID 30448189; conditions: cited from earlier work
LSD1 [2] = target: T1, LSD1; assay: LSD1 enzyme inhibition assay (H3K4me2 substrate, Amplex Red/HRP fluorescence)
LSD1 [3] = target: T1, LSD1; conditions: cited from earlier work

melting point [°C] | IC50 (LSD1 [2]) [µM] | Compound | further results
163 to 164 |  | COc1cc(Br)c(/C=C/c2ccc(C(=O)NO)cc2)cc1OC | 
159 to 160 |  | COc1cc(F)c(/C=C/c2ccc(C(=O)NO)cc2)cc1OC | 
 |  | N/C(=N\O)c1cccc(/C=C/c2ccnc(-c3cc(F)ccc3O)c2)c1 [Compound 22] | binding site by enzyme kinetics studies (LSD1 [1]): FAD region
205 to 206 | 4.16 | COc1ccc(/C=C/c2ccc(/C=C/C(=O)NO)cc2)cc1OC [Compound 24] | 
185 to 186 | 3.31 | COc1cc(F)c(/C=C/c2ccc(/C=C/C(=O)NO)cc2)cc1OC [Compound 25] | 
149 to 150 | 5.18 | COc1cc(/C=C/c2ccc(/C=C/C(=O)NO)cc2)cc(OC)c1 [Compound 26] | 
120 to 121 | 3.98 | COc1cc(Br)c(/C=C/c2ccc(/C=C/C(=O)NO)cc2)cc1OC [Compound 27] | 
 | 0.692 | COc1cc(/C=C/c2ccc(C(=O)NO)cc2)cc(OC)c1 [Compound 29] | 
197 to 198 | 0.816 | COc1ccc(/C=C/c2ccc(C(=O)NO)cc2)cc1OC [Compound 30] | 
266 to 267 | 1.3 | O=C(NO)c1ccc(/C=C/c2cc(F)cc(F)c2)cc1 [Compound 31] | 
193 to 194 | 1.93 | O=C(NO)c1ccc(/C=C/c2ccc3c(c2)CCO3)cc1 [Compound 33] | 
 |  | O=C(O)c1ccc(CN2CCC(CN[C@@H]3C[C@H]3c3ccccc3)CC2)cc1 [GSK2879552] | IC50 (LSD1 [3]; inhibition of LSD1): 0.02 µM
 |  | Cc1ccc(-c2ncc(OC[C@@H]3CCNC3)cc2-c2ccc(C#N)cc2)cc1 [GSK-354] | IC50 (LSD1 [3]; reversible LSD1 inhibitor): 0.09 µM
 |  | C#CCN(C)Cc1ccccc1 [pargyline] | inhibitory effect on LSD1 (LSD1 [3]; MAO inhibitors bonding covalently with FAD): no significant inhibitory effect; selectivity (LSD1 [3]; MAO inhibitors): poor selectivity
